Results from the NIST ThermoML archive (doi:10.1016/j.jct.2012.10.011).
Numbers after ± are expanded uncertainties.

Columns and labels:
[1] = for molar entropy: 101.33 kPa, Vacuum adiabatic calorimetry; for vapor or sublimation pressure: Closed cell (Static) method
[2] = molar enthalpy of vaporization or sublimation; conditions: 298.15 K; Liquid; Static calorimetry
[3] = Molar enthalpy of transition or fusion; conditions: Crystal; Adiabatic calorimetry
[4] = molar heat capacity at constant pressure; conditions: 101.33 kPa, Crystal, Vacuum adiabatic calorimetry

CN=C=O [methyl isocyanate]
[1]
Conditions | Triple point temperature [K] | molar entropy [J/K/mol] | vapor or sublimation pressure [kPa]
20 K, Crystal | – | 2.44 ± 0.037 | –
30 K, Crystal | – | 6.933 ± 0.081 | –
40 K, Crystal | – | 12.87 ± 0.099 | –
50 K, Crystal | – | 19.5 ± 0.12 | –
60 K, Crystal | – | 26.39 ± 0.14 | –
70 K, Crystal | – | 33.31 ± 0.16 | –
80 K, Crystal | – | 40.14 ± 0.18 | –
90 K, Crystal | – | 46.89 ± 0.37 | –
100 K, Crystal | – | 53.42 ± 0.38 | –
110 K, Crystal | – | 59.72 ± 0.39 | –
120 K, Crystal | – | 65.78 ± 0.4 | –
130 K, Crystal | – | 71.59 ± 0.41 | –
140 K, Crystal | – | 77.17 ± 0.42 | –
150 K, Crystal | – | 82.52 ± 0.42 | –
160 K, Crystal | – | 87.67 ± 0.43 | –
170 K, Crystal | – | 92.65 ± 0.44 | –
178.47 K, Liquid | – | – | 0.024 ± 0.0067
180 K, Liquid | – | 139.42 ± 0.51 | –
184.03 K, Liquid | – | – | 0.036 ± 0.0067
189.11 K, Liquid | – | – | 0.04666 ± 0.0067
190 K, Liquid | – | 145 ± 0.52 | –
194.19 K, Liquid | – | – | 0.06666 ± 0.0067
199.43 K, Liquid | – | – | 0.1293 ± 0.0067
200 K, Liquid | – | 150.29 ± 0.53 | –
204.46 K, Liquid | – | – | 0.2053 ± 0.0067
209.49 K, Liquid | – | – | 0.3106 ± 0.0067
210 K, Liquid | – | 155.31 ± 0.53 | –
214.49 K, Liquid | – | – | 0.4826 ± 0.0067
219.48 K, Liquid | – | – | 0.7226 ± 0.008
220 K, Liquid | – | 160.1 ± 0.54 | –
224.44 K, Liquid | – | – | 1.048 ± 0.012
229.43 K, Liquid | – | – | 1.5 ± 0.013
230 K, Liquid | – | 164.68 ± 0.55 | –
234.35 K, Liquid | – | – | 2.12 ± 0.015
239.21 K, Liquid | – | – | 2.938 ± 0.016
240 K, Liquid | – | 169.08 ± 0.55 | –
244.16 K, Liquid | – | – | 4.036 ± 0.019
249.07 K, Liquid | – | – | 5.45 ± 0.021
250 K, Liquid | – | 173.31 ± 0.56 | –
253.98 K, Liquid | – | – | 7.286 ± 0.027
258.88 K, Liquid | – | – | 9.597 ± 0.031
260 K, Liquid | – | 177.38 ± 0.57 | –
263.72 K, Liquid | – | – | 12.47 ± 0.037
268.59 K, Liquid | – | – | 16.03 ± 0.045
270 K, Liquid | – | 181.33 ± 0.57 | –
273.4 K, Liquid | – | – | 20.31 ± 0.055
278.1 K, Liquid | – | – | 25.44 ± 0.065
280 K, Liquid | – | 185.16 ± 0.58 | –
282.71 K, Liquid | – | – | 31.41 ± 0.079
287.27 K, Liquid | – | – | 38.39 ± 0.095
290 K, Liquid | – | 188.89 ± 0.58 | –
296.38 K, Liquid | – | – | 56.22 ± 0.13
297.07 K, Liquid | – | – | 57.78 ± 0.13
300 K, Liquid | – | 192.52 ± 0.59 | –
Crystal, Adiabatic calorimetry | 178.46 ± 0.084 | – | –

Conditions | Molar enthalpy of transition or fusion [kJ/mol] | molar enthalpy [kJ/mol]
[2] | – | 28.75 ± 0.15
[3] | 7.455 ± 0.016 | –

[4]
Conditions | molar heat capacity at constant pressure [J/K/mol]
14.71 K | 2.971 ± 0.032
15.61 K | 3.494 ± 0.035
16.68 K | 4.234 ± 0.04
18.13 K | 5.318 ± 0.045
19.93 K | 6.837 ± 0.051
20 K | 6.9 ± 0.05
21.81 K | 8.41 ± 0.057
25.1 K | 11.4 ± 0.06
27.08 K | 13.31 ± 0.07
29.42 K | 15.5 ± 0.07
30 K | 16.07 ± 0.07
31.96 K | 17.95 ± 0.08
34.72 K | 20.64 ± 0.08
38.26 K | 23.96 ± 0.09
40 K | 25.53 ± 0.09
42.59 K | 27.81 ± 0.1
47.01 K | 31.56 ± 0.1
50 K | 34.07 ± 0.11
51.57 K | 35.36 ± 0.11
56.6 K | 39.11 ± 0.12
60 K | 41.49 ± 0.12
60.37 K | 41.76 ± 0.12
62.3 K | 43.18 ± 0.13
65.89 K | 45.61 ± 0.13
70 K | 48.2 ± 0.14
71.87 K | 49.37 ± 0.14
78.77 K | 53.47 ± 0.15
